Source: patent US20140011799A1 (Bristol-Myers Squibb Company, priority 2012, published 2014)

Columns and labels:
Endothelial lipase (EL) = target: T1, Endothelial lipase (EL) (Homo sapiens, UniProt Q9Y5X9); assay: Endothelial lipase (EL) enzymatic assay, fluorescent substrate A10070 in DMPG vesicles; format: biochemical; conditions: EL from conditioned media of HT-1080 cells; compound preincubated 30 min at 37° C; read-out: EL IC50
T1 construct: HT-1080 cells that were transformed using RAGE technology (Athersys) to overexpress endogenous EL; endogenous in cells; conditioned medium used
T1 sequence (Q9Y5X9 21-500): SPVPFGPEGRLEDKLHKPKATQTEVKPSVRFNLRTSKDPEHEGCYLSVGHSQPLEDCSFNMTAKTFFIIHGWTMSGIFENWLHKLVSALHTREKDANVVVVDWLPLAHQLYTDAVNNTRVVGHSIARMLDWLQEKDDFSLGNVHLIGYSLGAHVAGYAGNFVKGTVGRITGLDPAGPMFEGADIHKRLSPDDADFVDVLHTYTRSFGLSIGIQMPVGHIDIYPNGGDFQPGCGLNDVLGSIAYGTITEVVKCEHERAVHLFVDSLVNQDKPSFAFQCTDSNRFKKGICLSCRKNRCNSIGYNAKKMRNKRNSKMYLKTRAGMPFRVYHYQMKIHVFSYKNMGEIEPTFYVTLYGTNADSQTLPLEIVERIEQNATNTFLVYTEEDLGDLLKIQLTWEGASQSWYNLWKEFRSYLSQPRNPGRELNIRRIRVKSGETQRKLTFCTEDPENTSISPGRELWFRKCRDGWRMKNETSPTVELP
Summary of the method: (§1)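 Substrate A10070 sits in sonicated DMPG vesicles at 0.11 mole fraction. Lipase and compound preincubated 30 min, 37° C, in HEPES pH 8.0 buffer with CaCl2.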

hepatic lipase (HL) = target: T2, hepatic lipase (HL) (Homo sapiens, UniProt P11150); assay: Hepatic lipase (HL) enzymatic assay, fluorescent substrate A10070 in DMPG vesicles; format: biochemical; conditions: HL partially purified from conditioned media of COS cells; compound preincubated 30 min at 37° C; read-out: HL IC50
T2 construct: made in house; host or cells: COS cells (conditioned medium, partially purified)
T2 sequence (P11150 23-499): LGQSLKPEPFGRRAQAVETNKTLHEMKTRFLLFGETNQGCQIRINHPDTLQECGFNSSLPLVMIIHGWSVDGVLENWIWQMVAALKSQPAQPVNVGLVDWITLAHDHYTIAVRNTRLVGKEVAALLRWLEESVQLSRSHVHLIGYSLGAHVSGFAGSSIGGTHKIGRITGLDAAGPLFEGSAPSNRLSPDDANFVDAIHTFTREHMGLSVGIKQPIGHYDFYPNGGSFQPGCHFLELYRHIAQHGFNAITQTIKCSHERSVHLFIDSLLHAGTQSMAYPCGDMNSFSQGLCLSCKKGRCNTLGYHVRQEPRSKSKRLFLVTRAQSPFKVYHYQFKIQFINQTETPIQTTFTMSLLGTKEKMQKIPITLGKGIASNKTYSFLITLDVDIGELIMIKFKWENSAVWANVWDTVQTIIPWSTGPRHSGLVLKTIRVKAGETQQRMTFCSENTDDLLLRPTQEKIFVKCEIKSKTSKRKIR
Summary of the method: as §1

IC50 (Endothelial lipase (EL))	IC50 (hepatic lipase (HL))	Compound
11 nM	76 nM	CC1(NC(=O)c2cccc(-c3ccc4nc(C(c5nnc(CC6(C)NC(=O)NC6=O)o5)S(C)(=O)=O)sc4c3)c2)CC1 (stereo not shown) [Example 224, 3-{2-[methanesulfonyl({5-[(4-methyl-2,5-dioxo-imidazolidin-4-yl)methyl]-1,3,4-oxadiazol-2-yl})methyl]-1,3-benzothiazol-6-yl}-N-(1-methylcyclopropyl) benzamide]
5 nM	51 nM	CC1(Cc2nnc(C(c3nc4ccc(-c5cccc(C(=O)NC6CC6)c5)cc4s3)S(C)(=O)=O)o2)NC(=O)NC1=O (stereo not shown) [Example 225, N-cyclopropyl-3-{2-[methanesulfonyl({5-[(4-methyl-2,5-dioxo-imidazolidin-4-yl)methyl]-1,3,4-oxadiazol-2-yl})methyl]-1,3-benzothiazol-6-yl}benzamide]
35 nM	53 nM	CC(C)CN(C)C(=O)c1cccc(-c2ccc3nc(C(c4nnc(CC5(C)NC(=O)NC5=O)o4)S(C)(=O)=O)sc3c2)c1 (stereo not shown) [Example 226, 3-{2-[methanesulfonyl({5-[(4-methyl-2,5-dioxo-imidazolidin-4-yl)methyl]-1,3,4-oxadiazol-2-yl})methyl]-1,3-benzothiazol-6-yl}-N-methyl-N-(2-methylpropyl)benzamide]
38 nM	356 nM	COCCN(C)C(=O)c1cccc(-c2ccc3nc(C(c4nnc(CC5(C)NC(=O)NC5=O)o4)S(C)(=O)=O)sc3c2)c1 (stereo not shown) [Example 227, 3-{2-[methanesulfonyl({5-[(4-methyl-2,5-dioxo-imidazolidin-4-yl)methyl]-1,3,4-oxadiazol-2-yl})methyl]-1,3-benzothiazol-6-yl}-N-(2-methoxyethyl)-N-methylbenzamide]
114 nM	170 nM	CC1(Cc2nnc(C(c3nc4ccc(-c5cccc(C(=O)N6CC[C@H](F)C6)c5)cc4s3)S(C)(=O)=O)o2)NC(=O)NC1=O (stereo partly drawn) [Example 228, 5-({5-[(6-{3-[(3S)-3-fluoropyrrolidine-1-carbonyl]phenyl}-1,3-benzothiazol-2-yl) (methanesulfonyl)methyl]-1,3,4-oxadiazol-2-yl}methyl)-5-methyl-imidazolidine-2,4-dione]
1 nM	54 nM	CC1(Cc2nnc(C(c3nc4ccc(-c5cccc(C(=O)N6CC[C@@H](F)C6)c5)cc4s3)S(C)(=O)=O)o2)NC(=O)NC1=O (stereo partly drawn) [Example 232, 5-({5-[(6-{3-[(3R)-3-fluoropyrrolidine-1-carbonyl]phenyl}-1,3-benzothiazol-2-yl) (methanesulfonyl)methyl]-1,3,4-oxadiazol-2-yl}methyl)-5-methyl-imidazolidine-2,4-dione]
1 nM	18 nM	CS(=O)(=O)C(c1nnc(CNS(N)(=O)=O)o1)c1nc2cc(-c3ccc(F)nc3)ccc2s1 (stereo not shown) [Example 233, N-[(5-{[5-(6-fluoropyridin-3-yl)-1,3-benzothiazol-2-yl] (methanesulfonyl)methyl}-1,3,4-oxadiazol-2-yl)methyl]aminosulfonamide]
4 nM	17 nM	COCc1ccc(-c2ccc3nc(C(c4nnc(CNS(N)(=O)=O)o4)S(=O)(=O)Cc4cc(C(F)(F)F)cc(C(F)(F)F)c4)sc3c2)cc1 (stereo not shown) [Example 234, N-[(5-{[3,5-bis(trifluoromethyl)phenyl]methanesulfonyl({6-[4-(methoxymethyl)phenyl]-1,3-benzothiazol-2-yl})methyl}-1,3,4-oxadiazol-2-yl)methyl]aminosulfonamide]
4 nM	6 nM	COCc1ccc(-c2ccc3nc(C(c4nnc(CNS(N)(=O)=O)o4)S(=O)(=O)Cc4cc(Cl)cc(Cl)c4)sc3c2)cc1 (stereo not shown) [Example 235, N-({5-[(3,5-dichlorophenyl)methanesulfonyl({6-[4-(methoxymethyl)phenyl]-1,3-benzothiazol-2-yl})methyl]-1,3,4-oxadiazol-2-yl}methyl)aminosulfonamide]
1 nM	1 nM	COCc1ccc(-c2ccc3nc(C(c4nnc(CNS(N)(=O)=O)o4)S(=O)(=O)Cc4ccc(C(F)(F)F)cc4)sc3c2)cc1 (stereo not shown) [Example 236, N-{[5-({6-[4-(methoxymethyl)phenyl]-1,3-benzothiazol-2-yl}[4-(trifluoromethyl)phenyl]meth-anesulfonylmethyl)-1,3,4-oxadiazol-2-yl]methyl} aminosulfonamide]
1 nM	2 nM	COCc1ccc(-c2ccc3nc(C(c4nnc(CNS(N)(=O)=O)o4)S(=O)(=O)Cc4ccc(OC(F)(F)F)cc4)sc3c2)cc1 (stereo not shown) [Example 237, N-{[5-({6-[4-(methoxymethyl)phenyl]-1,3-benzothiazol-2-yl}[4-(trifluoromethoxy)phenyl]methanesulfonylmethyl)-1,3,4-oxadiazol-2-yl]methyl} aminosulfonamide]
4 nM	18 nM	NS(=O)(=O)NCc1nnc(C(c2nc3ccc(-c4ccc(F)nc4)cc3s2)S(=O)(=O)Cc2ccc(C(F)(F)F)cc2)o1 (stereo not shown) [Example 238, N-[(5-{[6-(6-fluoropyridin-3-yl)-1,3-benzothiazol-2-yl] [4-(trifluoromethyl)phenyl]methanesulfonylmethyl}-1,3,4-oxadiazol-2-yl)methyl]aminosulfonamide]
4 nM	9 nM	NS(=O)(=O)NCc1nnc(C(c2nc3ccc(-c4ccc(F)nc4)cc3s2)S(=O)(=O)Cc2ccc(OC(F)(F)F)cc2)o1 (stereo not shown) [Example 239, N-[(5-{[6-(6-fluoropyridin-3-yl)-1,3-benzothiazol-2-yl] [4-(trifluoromethoxy)phenyl]methanesulfonylmethyl}-1,3,4-oxadiazol-2-yl)methyl] aminosulfonamide]
2 nM	3 nM	COCc1ccc(-c2ccc3nc(C(c4nnc(CNS(N)(=O)=O)o4)S(=O)(=O)Cc4ccccc4F)sc3c2)cc1 (stereo not shown) [Example 240, N-({5-[(2-fluorophenyl)methanesulfonyl ({6-[4-(methoxymethyl)phenyl]-1,3-benzothiazol-2-yl})methyl]-1,3,4-oxadiazol-2-yl}methyl) aminosulfonamide]
1 nM	1 nM	COCc1ccc(-c2ccc3nc(C(c4nnc(CNS(N)(=O)=O)o4)S(=O)(=O)Cc4cccc(F)c4)sc3c2)cc1 (stereo not shown) [Example 241, N-({5-[(3-fluorophenyl)methanesulfonyl({6-[4-(methoxymethyl)phenyl]-1,3-benzothiazol-2-yl})methyl]-1,3,4-oxadiazol-2-yl}methyl)aminosulfonamide]
1 nM	1 nM	COCc1ccc(-c2ccc3nc(C(c4nnc(CNS(N)(=O)=O)o4)S(=O)(=O)Cc4ccc(F)cc4)sc3c2)cc1 (stereo not shown) [Example 242, N-({5-[(4-fluorophenyl)methanesulfonyl ({6-[4-(methoxymethyl)phenyl]-1,3-benzothiazol-2-yl})methyl]-1,3,4-oxadiazol-2-yl}methyl) aminosulfonamide]
5 nM	119 nM	CS(=O)(=O)C(c1nnc(CNS(N)(=O)=O)o1)c1nc2cc(-c3ccc(C(=O)N4CCOCC4)cc3)ccc2s1 (stereo not shown) [Example 243, N-({5-[methanesulfonyl({5-[4-(morpholine-4-carbonyl)phenyl]-1,3-benzothiazol-2-yl})methyl]-1,3,4-oxadiazol-2-yl}methyl)aminosulfonamide]
8 nM	72 nM	Cn1ccc(-c2ccc3sc(C(c4nnc(CNS(N)(=O)=O)o4)S(C)(=O)=O)nc3c2)cc1=O (stereo not shown) [Example 245, N-[(5-{methanesulfonyl[5-(1-methyl-2-oxo-1,2-dihydropyridin-4-yl)-1,3-benzothiazol-2-yl]methyl}-1,3,4-oxadiazol-2-yl)methyl]aminosulfonamide]
9 nM	6 nM	CS(=O)(=O)C(c1nnc(CNS(N)(=O)=O)o1)c1nc2cc(-c3ncccn3)ccc2s1 (stereo not shown) [Example 246, N-[(5-{methanesulfonyl[5-(pyrimidin-2-yl)-1,3-benzothiazol-2-yl]methyl}-1,3,4-oxadiazol-2-yl)methyl]aminosulfonamide]
4 nM	43 nM	CS(=O)(=O)C(c1nnc(CNS(N)(=O)=O)o1)c1nc2cc(-c3cncnc3)ccc2s1 (stereo not shown) [Example 247, N-[(5-{methanesulfonyl[5-(pyrimidin-5-yl)-1,3-benzothiazol-2-yl]methyl}-1,3,4-oxadiazol-2-yl)methyl]aminosulfonamide]
